From patent US20090291977A1, “Chromane Derivatives Useful As Acid Pump Antagonists” (priority 2004, published 2009) come the findings set out here.

Experiment [1] concerns the target T1, Porcine gastric H+/K+-ATPase (Sus scrofa, UniProt P19156).
T1 construct: The gastric vesicles were collected from interface on 0.25 M sucrose layer containing 7% Ficoll; from tissue; host or cells: mucous membrane of fresh porcine stomachs (gastric vesicles)
Kind of experiment: Ion-leaky porcine gastric H+/K+-ATPase inhibition. The experiment is classed as biochemical. The settings on record: ion-leaky vesicles, 5 mM KCl, pH 6.4, 37° C., 30 minutes. The method, then: The porcine gastric vesicles for Porcine gastric H^+/K^+-ATPase inhibition assays were prepared from mucous membrane in fresh porcine stomachs by homogenization with a tight-fitted polytetrafluoroethylene (Teflone®) homogenizer in 0.25 M sucrose at 4° C. The crude pellet was removed with centrifugation at 20,000 g for 30 min. Then supernatant was centrifuged at 100,000 g for 30 min. The resulting pellet was re-suspended in 0.25 M sucrose, and then subjected to density gradient centrifugation at 132,000 g for 90 min. The gastric vesicles were collected from interface on 0.25 M sucrose layer containing 7% Ficoll™ PM400(Amersham Biosciences). This procedure was performed in a cold room.
Ion-leaky porcine gastric H^+/K^+-ATPase-inhibition was measured according to the modified method described in Biochemical Pharmacology, 1988, 37, 2231-2236.
The isolated vesicles were lyophilized, and then kept in deep-freezer until use. For enzyme assay, lyophilized vesicles were reconstituted with 3 mM MgSO4 containing 40 mM Bis-tris (pH 6.4 at 37° C.).
Enzyme reaction was performed incubating 5 mM KCl, 3 mM Na2ATP, 3 mM MgSO4 and 1.0 μg of reconstituted vesicles for 30 minutes at 37° C. in a final 60 μl of reaction mixture (40 mM Bis-tris, pH 6.4) with or without the test compound. Enzyme reaction was stopped by adding 10% sodium dodecyl sulphate (SDS). Released inorganic phosphate from ATP was detected by incubation with mixture of 1 part of 35 mM ammonium molybdate tetrahydrate in 15 mM Zinc acetate hydrate and 4 parts of 10% ascorbic acid (pH 5.0), resulting in phosphomolybdate, which has optical density at 750 nm.

Experiment [2] relates to acid secretion in the gastric lumen-perfused rat. Kind of experiment: Inhibition of acid secretion in the gastric lumen-perfused rat. The class given is in vivo. As to conditions: Sprague-Dawley rat, pentagastrin-stimulated acid secretion, intravenous bolus or intraduodenal administration. As to the method: Acid secretion in the gastric lumen-perfused rat was measured according to Watanabe et al. [Watanabe K et al., J. Physiol. (Paris) 2000; 94: 111-116].
Male Sprague-Dawley rats, 8 weeks old, deprived of food for 18 hours before the experiment with free access to water, were anesthetized with urethane (1.4 g/kg, i.p.) and tracheotomized. After a middle abdominal incision, a dual polyethylene cannula was inserted into the forestomach and the stomach was perfused with saline (37° C., pH 5.0) at a rate of 1 ml/min. The acid output in the perfusate was determined at 5 minutes interval by titration with 0.02 M NaOH to pH 5.0. After the determination of basal acid secretion for 30 min, the acid secretion was stimulated by a continuous intravenous infusion of pentagastrin (16 μg/kg/h). The test compounds were administered by an intravenous bolus injection or intraduodenal administration after the stimulated acid secretion reached a plateau phase. The acid secretion was monitored after the administration.

T1 sequence (P19156 2-1034 limits assumed): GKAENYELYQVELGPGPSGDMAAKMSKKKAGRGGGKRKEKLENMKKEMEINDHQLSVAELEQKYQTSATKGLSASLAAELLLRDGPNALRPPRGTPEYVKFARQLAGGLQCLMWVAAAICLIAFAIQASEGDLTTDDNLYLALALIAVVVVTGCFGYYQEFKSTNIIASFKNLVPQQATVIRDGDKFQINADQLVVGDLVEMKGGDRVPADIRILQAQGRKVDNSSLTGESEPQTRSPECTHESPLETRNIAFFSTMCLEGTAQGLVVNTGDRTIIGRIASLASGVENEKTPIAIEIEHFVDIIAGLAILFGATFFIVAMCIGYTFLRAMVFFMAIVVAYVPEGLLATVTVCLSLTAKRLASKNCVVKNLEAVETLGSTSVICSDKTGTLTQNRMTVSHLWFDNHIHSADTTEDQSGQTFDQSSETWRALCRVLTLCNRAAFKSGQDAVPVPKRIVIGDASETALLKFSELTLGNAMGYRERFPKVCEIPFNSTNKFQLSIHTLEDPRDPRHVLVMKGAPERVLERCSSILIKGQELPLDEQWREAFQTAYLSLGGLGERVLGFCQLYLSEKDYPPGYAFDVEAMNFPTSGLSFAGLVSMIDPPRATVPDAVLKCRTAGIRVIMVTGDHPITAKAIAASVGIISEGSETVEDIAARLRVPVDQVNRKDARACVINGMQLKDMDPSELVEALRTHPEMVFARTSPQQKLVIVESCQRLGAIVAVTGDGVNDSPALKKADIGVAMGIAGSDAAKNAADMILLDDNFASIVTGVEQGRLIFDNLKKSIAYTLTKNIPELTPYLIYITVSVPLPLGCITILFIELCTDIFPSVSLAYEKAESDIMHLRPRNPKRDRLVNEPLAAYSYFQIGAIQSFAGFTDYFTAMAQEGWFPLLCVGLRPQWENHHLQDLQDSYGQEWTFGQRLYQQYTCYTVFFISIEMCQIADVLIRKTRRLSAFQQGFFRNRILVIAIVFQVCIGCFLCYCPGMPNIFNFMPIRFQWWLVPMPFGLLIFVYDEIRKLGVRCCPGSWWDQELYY
T1 sequence (P18434 whole entry partner): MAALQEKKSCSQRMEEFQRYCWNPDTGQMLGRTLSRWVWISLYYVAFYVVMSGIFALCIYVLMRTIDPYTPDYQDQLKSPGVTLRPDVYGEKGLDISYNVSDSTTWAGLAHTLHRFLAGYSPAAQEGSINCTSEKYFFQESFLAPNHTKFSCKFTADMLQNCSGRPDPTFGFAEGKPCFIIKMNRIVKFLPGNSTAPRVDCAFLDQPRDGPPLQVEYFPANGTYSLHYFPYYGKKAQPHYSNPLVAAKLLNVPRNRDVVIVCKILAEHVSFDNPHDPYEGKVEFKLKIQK

For the molecule `Cc1cccc2c1C(Nc1cc(C(=O)N(C)CCO)cn3c(C)c(C)nc13)CCO2` (single isomer, unassigned; (+)) [Example 5-3, (+)-N-(2-Hydroxyethyl)-N,2,3-trimethyl-8-[(5-methyl-3,4-dihydro-2H-chromen-4-yl)amino]imidazo[1,2-a]pyridine-6-carboxamide], half-maximal inhibition in experiment [1] (IC50) required 93 nM. Also, in experiment [2], the “inhibitory activity (inhibition of acid secretion)” value is “good inhibitory activity”.

Turning to `Cc1nc2c(NC3CCOc4ccccc43)cc(C(=O)N(C)C)cn2c1C` (single isomer, unassigned; (-)) [Example 1-2, (−)-8-(3,4-Dihydro-2H-chromen-4-ylamino)-N,N,2,3-tetramethylimidazo[1,2-a]pyridine-6-carboxamide], the IC50 (as a rule, the concentration at which inhibition is half-maximal) in experiment [1] worked out at 61.9 nM. Molecule `Cc1nc2c(NC3CCOc4cccc(F)c43)cc(C(=O)N(C)CCO)cn2c1C` (single isomer, unassigned) [Example 11-2, 8-[(5-Fluoro-3,4-dihydro-2H-chromen-4-yl)amino]-N-(2-hydroxyethyl)-N,2,3-trimethylimidazo[1,2-a]pyridine-6-carboxamide] gave an IC50 in experiment [1] of 53.8 nM.
